Measured values as given in publication PMC7403315, “Cyclic peptide FXII inhibitor provides safe anticoagulation in a thrombosis model and in artificial lungs” (Nature Communications, 2020).
“And” between values parts separate entries of the source, which are not always exact repeats. Equal values may be shown once.

Columns and labels:
Format in all cases: biochemical
Recombinant mouse FXII = biological target: T1, Recombinant mouse FXII (Mus musculus, UniProt Q80YC5); experiment: Inhibition of recombinant FXIIa (rFXIIa); conditions: Recombinant mouse FXII, individual plates, read-out: Residual activity (%)
T1 sequence (Q80YC5 355-597 limits assumed): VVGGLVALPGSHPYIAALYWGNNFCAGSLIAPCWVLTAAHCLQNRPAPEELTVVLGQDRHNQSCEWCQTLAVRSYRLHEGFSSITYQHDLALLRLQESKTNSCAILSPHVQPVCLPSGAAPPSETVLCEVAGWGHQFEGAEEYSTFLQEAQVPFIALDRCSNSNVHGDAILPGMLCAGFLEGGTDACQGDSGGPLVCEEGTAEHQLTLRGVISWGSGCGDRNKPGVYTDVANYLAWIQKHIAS
T1 sequence (Q80YC5 20-354 limits assumed): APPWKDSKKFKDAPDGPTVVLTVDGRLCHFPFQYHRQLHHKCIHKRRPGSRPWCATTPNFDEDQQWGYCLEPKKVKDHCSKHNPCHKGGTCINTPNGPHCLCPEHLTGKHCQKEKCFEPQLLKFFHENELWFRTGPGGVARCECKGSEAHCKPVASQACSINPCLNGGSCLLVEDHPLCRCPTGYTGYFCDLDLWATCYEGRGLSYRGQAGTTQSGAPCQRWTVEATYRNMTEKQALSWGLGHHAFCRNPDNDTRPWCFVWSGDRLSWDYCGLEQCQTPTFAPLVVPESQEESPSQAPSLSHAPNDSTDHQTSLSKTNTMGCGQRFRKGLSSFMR

Mouse α-FXIIa = biological target: T2, Mouse α-FXIIa (Mus musculus, UniProt Q80YC5); experiment: FXIIa protease inhibition assay with fluorogenic substrate Boc-Gln-Gly-Arg-AMC
T2 construct: Mouse α-FXIIa; purchased Molecular Innovations MFXIIA
T2 sequence (Q80YC5 355-597 limits assumed): T1 sequence (Q80YC5 355-597 limits assumed)
T2 sequence (Q80YC5 20-354 limits assumed): T1 sequence (Q80YC5 20-354 limits assumed)
Experimental: (§1) In order to test the inhibitory activity of peptides without prior purification, we developed the following method. […] After solid-phase peptide synthesis, cleavage, and ether precipitation, the peptides were chemically cyclized and their Ki values were determined in a FXIIa activity assay using a fluorogenic substrate.
(§2) Protease inhibition assays
(§3) The inhibitory activity of peptides was determined by measuring the residual protease activity with a fluorogenic substrate. The assay was performed in buffer containing 10 mM Tris-Cl, pH […]
(§4) 1% (v/v) DMSO in a volume of 150 µl. FXIIa activity was measured with the fluorogenic substrate Boc-Gln-Gly-Arg-AMC (Bachem) at a final concentration of 50 µM. Mouse α-FXIIa (Molecular Innovations cat # MFXIIA) and human β-FXIIa (Molecular Innovations cat # HFXIIAB) were used at final concentrations of 0.4 nM. The reaction was pipetted as follows: 50 µl of bicyclic peptide in assay buffer were added to 50 µl of FXIIa in assay buffer and incubated for 10 minutes at 25°C before 50 µl of 150 µM fluorogenic substrate in assay buffer were added to measure the residual protease activity with an Infinite M200Pro fluorescence plate reader (excitation at 368 nm, emission at 467 nm; Tecan) for a period of 30 minutes with a read every minute at 25°C. The Tecan software i-control (version 1.1) was used for data analysis. Stock solutions of 1 mM bicyclic peptide were prepared by either dissolving the unpurified cyclization reaction with water or by dissolving purified and lyophilized peptide in water. The bicyclic peptides were serially diluted two-fold using assay buffer. Sigmoidal curves were fitted to the data using the following dose response equation (1), wherein x = peptide concentration, y = % protease activity, and p = Hill slope. IC50 values were derived from the fitted curve.
(§5) The inhibition constants (Ki) were calculated according to the equation of Cheng and Prusoff, Ki = IC50/(1+([S]0/Km), wherein IC50 is the functional strength of the inhibitor, [S]0 is the total substrate concentration, and Km is the Michaelis-Menten constant. […]
(§6) the substrate Boc-Gln-Gly-Arg-AMC. […]

human β-FXIIa = biological target: T3, human β-FXIIa (Homo sapiens, UniProt P00748); experiment: as above
T3 construct: human β-FXIIa (Molecular Innovations cat #); purchased Molecular Innovations HFXIIAB; host or cells: human blood
Experimental: as §1, §2, §3, §4, §5, §6

[1] = crude, coumarin labeled peptides, individual plates

T3 sequence (P00748 373-615 limits assumed, other chains not shown): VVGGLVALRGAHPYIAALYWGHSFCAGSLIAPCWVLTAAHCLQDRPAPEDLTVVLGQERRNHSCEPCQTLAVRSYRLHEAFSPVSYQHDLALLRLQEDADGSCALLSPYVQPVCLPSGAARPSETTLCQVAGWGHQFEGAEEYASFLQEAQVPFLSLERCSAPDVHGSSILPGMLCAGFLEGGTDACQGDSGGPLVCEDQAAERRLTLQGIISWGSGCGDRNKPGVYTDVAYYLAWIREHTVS

Which results are given for CC(C)C[C@@H]1NC(=O)[C@H](CCC(N)=O)NC(=O)[C@H](CCCNC(=N)N)NC(=O)[C@@H]2CSCCC(=O)N3CN(CN(C3)C(=O)CCSC[C@H](NC(=O)[C@@H](N)CCCNC(=N)N)C(=O)N[C@@H](Cc3ccccc3)C(=O)N[C@@H](CCCNC(=N)N)C(=O)N[C@@H](CC(C)C)C(=O)N3CCC[C@H]3C(=O)N2)C(=O)CCSC[C@@H](C(=O)N[C@@H](CCCNC(=N)N)C(N)=O)NC(=O)[C@H](CCCNC(=N)N)NC1=O [FXII618]?
remaining activity at 0.000390625 µM (Recombinant mouse FXII; peptide 0.390625 nM): 97.5%; remaining activity at 0.00078125 µM (Recombinant mouse FXII; peptide 0.78125 nM): 99%; remaining activity at 0.0015625 µM (Recombinant mouse FXII; peptide 1.5625 nM): 99.1%; remaining activity at 0.003125 µM (Recombinant mouse FXII; peptide 3.125 nM): 96.3%; remaining activity at 0.00625 µM (Recombinant mouse FXII; peptide 6.25 nM): 94%; remaining activity at 0.0125 µM (Recombinant mouse FXII; peptide 12.5 nM): 90.3%; remaining activity at […] (Recombinant mouse FXII; peptide 25 nM): 81.9%; remaining activity at 0.05 µM (Recombinant mouse FXII; peptide 50 nM): 69.1%; remaining activity at 0.1 µM (Recombinant mouse FXII; peptide 100 nM): 53%; remaining activity at 0.2 µM (Recombinant mouse FXII; peptide 200 nM): 35.9%; remaining activity at 0.4 µM (Recombinant mouse FXII; peptide 400 nM): 22.6%; IC50 (Mouse α-FXIIa; [1]): 290 nM and 312 nM and 236 nM and 289 nM and 257 nM and 228 nM and 245 nM and 286 nM and 358 nM; Ki (Mouse α-FXIIa; purified peptide without coumarin label, read-out: Ki mouse FXIIa): 86 ± 9 nM; IC50 (human β-FXIIa; [1]): 18.4 nM and 23.5 nM and 23.3 nM and 27.9 nM; Residual activity of human FXIIa (human β-FXIIa; inhibitor 0.488281 nM, 0.000488281 µM): 96.6624% and 92.9553%; remaining activity at 0.000488281 µM (human β-FXIIa; inhibitor 0.488281 nM, read-out: Residual activity of human FXIIa): 98.6%; Residual activity of human FXIIa (human β-FXIIa; inhibitor 1.95312 nM, 0.00195312 µM): 84.5129% and 82.3772%; remaining activity at 0.00195312 µM (human β-FXIIa; inhibitor 1.95312 nM, read-out: Residual activity of human FXIIa): 85.8%; Residual activity of human FXIIa (human β-FXIIa; inhibitor 3.90625 nM, 0.00390625 µM): 70.1534% and 69.6521%; remaining activity at 0.00390625 µM (human β-FXIIa; inhibitor 3.90625 nM, read-out: Residual activity of human FXIIa): 75.7%; Residual activity of human FXIIa (human β-FXIIa; inhibitor 7.8125 nM, 0.0078125 µM): 55.0198% and 53.6523%; remaining activity at 0.0078125 µM (human β-FXIIa; inhibitor 7.8125 nM, read-out: Residual activity of human FXIIa): 59.1%; Residual activity of human FXIIa (human β-FXIIa; inhibitor 15.625 nM, 0.015625 µM): 36.7931% and 38.5109%; remaining activity at 0.015625 µM (human β-FXIIa; inhibitor 15.625 nM, read-out: Residual activity of human FXIIa): 39.2%; Residual activity of human FXIIa (human β-FXIIa; inhibitor 31.25 nM, 0.03125 µM): 21.9721% and 22.4384%; remaining activity at 0.03125 µM (human β-FXIIa; inhibitor 31.25 nM, read-out: Residual activity of human FXIIa): 24.9%; Residual activity of human FXIIa (human β-FXIIa; inhibitor 62.5 nM, 0.0625 µM): 12.1968% and 13.3118%; remaining activity at 0.0625 µM (human β-FXIIa; inhibitor 62.5 nM, read-out: Residual activity of human FXIIa): 14%; Residual activity of human FXIIa (human β-FXIIa; inhibitor 125 nM, 0.125 µM): 6.613% and 11.4379%; remaining activity at 0.125 µM (human β-FXIIa; inhibitor 125 nM, read-out: Residual activity of human FXIIa): 7.65%; remaining activity at […] (human β-FXIIa; inhibitor 250 nM, read-out: Residual activity of human FXIIa): 3.83%; Residual activity of human FXIIa (human β-FXIIa; inhibitor 500 nM, 0.5 µM): 2.542% and 2.502%; remaining activity at 0.5 µM (human β-FXIIa; inhibitor 500 nM, read-out: Residual activity of human FXIIa): 2.52%; Residual activity of human FXIIa (human β-FXIIa; inhibitor 0.976562 / 0.976563 nM, 0.000976563 µM): 92.5507% and 90.2369%; remaining activity at 0.000976563 µM (human β-FXIIa; inhibitor 0.976562 / 0.976563 nM, read-out: Residual activity of human FXIIa): 96.2%; Ki (human β-FXIIa; purified peptide without coumarin label, read-out: Ki human FXIIa): 8.1 ± 0.7 nM
